The source of these data is paper PMC9097471, “Development of Selective Phosphatidylinositol 5-Phosphate 4-Kinase γ Inhibitors with a Non-ATP-competitive, Allosteric Binding Mode” (Journal of Medicinal Chemistry, 2022).

For one test, the target named is PI5P4Kγ+ (Homo sapiens, UniProt Q8TBX8, D138G/D197E/E133P/E135D/E153T/E196G/G136S/G139A/N195G/S132L/S134N). Put plainly: Thermal shift assay. Particulars: read-out: ΔTm PI5P4Kγ+.
In another test the target is T1, PI5P4Kα (Homo sapiens, UniProt P48426).
T1 sequence (P48426 1-406): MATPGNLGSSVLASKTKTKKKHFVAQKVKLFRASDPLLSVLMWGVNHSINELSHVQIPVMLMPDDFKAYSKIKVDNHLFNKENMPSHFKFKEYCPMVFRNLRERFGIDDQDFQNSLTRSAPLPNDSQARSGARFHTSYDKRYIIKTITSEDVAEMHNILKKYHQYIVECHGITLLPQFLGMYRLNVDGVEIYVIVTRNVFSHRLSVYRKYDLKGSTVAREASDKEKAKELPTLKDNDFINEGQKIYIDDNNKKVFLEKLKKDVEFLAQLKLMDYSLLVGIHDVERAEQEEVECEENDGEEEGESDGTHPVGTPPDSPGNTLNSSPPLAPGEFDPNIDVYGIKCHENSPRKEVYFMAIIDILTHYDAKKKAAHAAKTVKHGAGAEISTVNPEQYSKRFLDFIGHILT
Put plainly: Thermal shift assay. Particulars: read-out: ΔTm PI5P4Kα, thermal shift, compound 63 μM.

Another test has as its target RIPK2 (Homo sapiens, UniProt O43353). Put plainly: Kinase panel, radiometric 33P filter binding. Particulars: read-out: % activity remaining.
A further test deals with RSK1 (Homo sapiens, UniProt Q15418). Put plainly: Kinase panel, radiometric 33P filter binding. Particulars: read-out: % activity remaining.
For another test, the target named is TAK1 (Homo sapiens, UniProt O43318). Description: Kinase panel, radiometric 33P filter binding. Particulars: read-out: % activity remaining.
For another test, the target named is DYRK2 (Homo sapiens, UniProt Q92630). Description: Kinase panel, radiometric 33P filter binding. Particulars: read-out: % activity remaining.
Sequence of DYRK2 (Q92630 whole entry): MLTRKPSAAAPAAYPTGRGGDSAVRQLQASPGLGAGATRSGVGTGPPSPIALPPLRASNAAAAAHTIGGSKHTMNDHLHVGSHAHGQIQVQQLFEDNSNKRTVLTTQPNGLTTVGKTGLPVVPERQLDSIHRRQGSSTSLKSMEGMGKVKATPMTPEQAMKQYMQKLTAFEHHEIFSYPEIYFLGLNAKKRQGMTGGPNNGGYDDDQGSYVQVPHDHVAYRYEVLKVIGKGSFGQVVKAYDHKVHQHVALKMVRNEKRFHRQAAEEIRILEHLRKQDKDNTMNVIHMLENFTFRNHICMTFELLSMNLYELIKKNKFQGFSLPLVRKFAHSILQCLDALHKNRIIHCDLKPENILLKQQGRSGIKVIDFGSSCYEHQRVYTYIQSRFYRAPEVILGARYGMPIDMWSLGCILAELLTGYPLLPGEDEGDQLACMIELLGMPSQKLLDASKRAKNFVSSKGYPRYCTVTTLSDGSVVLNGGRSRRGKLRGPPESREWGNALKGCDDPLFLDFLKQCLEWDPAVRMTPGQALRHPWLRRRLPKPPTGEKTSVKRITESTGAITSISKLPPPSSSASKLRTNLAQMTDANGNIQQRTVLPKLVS
The next test has as its target ERK8 (Homo sapiens, UniProt Q8TD08). Description: Kinase panel, radiometric 33P filter binding. To be noted: read-out: % activity remaining.
The target of a further test is MINK1 (Homo sapiens, UniProt Q8N4C8). Description: Kinase panel, radiometric 33P filter binding. To be noted: read-out: % activity remaining.
Another test has as its target SGK1 (Homo sapiens, UniProt O00141). Description: Kinase panel, radiometric 33P filter binding. Particulars: read-out: % activity remaining.
The next test concerns the target NUAK1 (Homo sapiens, UniProt O60285). Put plainly: Kinase panel, radiometric 33P filter binding. To be noted: read-out: % activity remaining.
The next test deals with MNK1 (Homo sapiens, UniProt Q9BUB5). Put plainly: Kinase panel, radiometric 33P filter binding. To be noted: read-out: % activity remaining.
Sequence of MNK1 (Q9BUB5 whole entry): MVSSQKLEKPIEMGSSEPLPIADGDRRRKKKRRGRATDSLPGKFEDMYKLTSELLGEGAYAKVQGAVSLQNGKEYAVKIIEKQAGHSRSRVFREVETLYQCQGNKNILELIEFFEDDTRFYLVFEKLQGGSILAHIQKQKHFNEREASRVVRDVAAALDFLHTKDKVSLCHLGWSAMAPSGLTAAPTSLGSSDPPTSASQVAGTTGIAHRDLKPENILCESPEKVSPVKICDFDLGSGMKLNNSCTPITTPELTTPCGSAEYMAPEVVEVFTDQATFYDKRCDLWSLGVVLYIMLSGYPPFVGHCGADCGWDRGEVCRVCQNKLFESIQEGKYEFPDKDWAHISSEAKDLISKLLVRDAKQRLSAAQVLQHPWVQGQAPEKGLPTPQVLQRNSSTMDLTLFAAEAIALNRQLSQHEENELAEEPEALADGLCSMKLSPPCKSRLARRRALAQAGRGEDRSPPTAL
A further test concerns the target NEK2a (Homo sapiens, UniProt P51955). Put plainly: Kinase panel, radiometric 33P filter binding. To be noted: read-out: % activity remaining.
The next test has as its target SYK (Homo sapiens, UniProt P43405). Description: Kinase panel, radiometric 33P filter binding. To be noted: read-out: % activity remaining.
The target of a further test is TESK1 (Homo sapiens, UniProt Q15569). Put plainly: Kinase panel, radiometric 33P filter binding. To be noted: read-out: % activity remaining.
Sequence of TESK1 (Q15569 whole entry): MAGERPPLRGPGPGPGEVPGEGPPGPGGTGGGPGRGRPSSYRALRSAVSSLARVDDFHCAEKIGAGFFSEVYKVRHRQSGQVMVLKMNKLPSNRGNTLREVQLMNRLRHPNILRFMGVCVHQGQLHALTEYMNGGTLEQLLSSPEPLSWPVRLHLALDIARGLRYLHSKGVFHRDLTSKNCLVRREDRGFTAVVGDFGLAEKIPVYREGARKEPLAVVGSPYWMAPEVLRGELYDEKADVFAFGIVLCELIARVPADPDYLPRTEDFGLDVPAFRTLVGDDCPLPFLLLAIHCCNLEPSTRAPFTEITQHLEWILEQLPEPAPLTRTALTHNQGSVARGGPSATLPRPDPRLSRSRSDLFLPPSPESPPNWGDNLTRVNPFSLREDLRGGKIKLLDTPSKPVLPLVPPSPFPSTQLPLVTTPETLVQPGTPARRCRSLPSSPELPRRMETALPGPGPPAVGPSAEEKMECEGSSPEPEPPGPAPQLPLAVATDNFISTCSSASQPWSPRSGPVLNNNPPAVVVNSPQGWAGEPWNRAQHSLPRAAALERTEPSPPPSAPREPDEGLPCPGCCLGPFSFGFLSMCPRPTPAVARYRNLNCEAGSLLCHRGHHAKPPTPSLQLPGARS
A further test concerns the target TAO1 (Homo sapiens, UniProt Q7L7X3). Description: Kinase panel, radiometric 33P filter binding. Particulars: read-out: % activity remaining.
The next test addresses IGF-1R (Homo sapiens, UniProt P08069). Put plainly: Kinase panel, radiometric 33P filter binding. Particulars: read-out: % activity remaining.
For a further test, the target named is PIM1 (Homo sapiens, UniProt P11309). Description: Kinase panel, radiometric 33P filter binding. Particulars: read-out: % activity remaining.
For the next test, the target named is p38d MAPK (Homo sapiens, UniProt O15264). Description: Kinase panel, radiometric 33P filter binding. To be noted: read-out: % activity remaining.
Another test concerns the target GSK3b (Homo sapiens, UniProt P49841). Put plainly: Kinase panel, radiometric 33P filter binding. Particulars: read-out: % activity remaining.
In the next test the target is HIPK1 (Homo sapiens, UniProt Q86Z02). Put plainly: Kinase panel, radiometric 33P filter binding. To be noted: read-out: % activity remaining.
In the next test the target is ERK5 (Homo sapiens, UniProt Q13164). Put plainly: Kinase panel, radiometric 33P filter binding. Particulars: read-out: % activity remaining.
Sequence of ERK5 (Q13164 whole entry): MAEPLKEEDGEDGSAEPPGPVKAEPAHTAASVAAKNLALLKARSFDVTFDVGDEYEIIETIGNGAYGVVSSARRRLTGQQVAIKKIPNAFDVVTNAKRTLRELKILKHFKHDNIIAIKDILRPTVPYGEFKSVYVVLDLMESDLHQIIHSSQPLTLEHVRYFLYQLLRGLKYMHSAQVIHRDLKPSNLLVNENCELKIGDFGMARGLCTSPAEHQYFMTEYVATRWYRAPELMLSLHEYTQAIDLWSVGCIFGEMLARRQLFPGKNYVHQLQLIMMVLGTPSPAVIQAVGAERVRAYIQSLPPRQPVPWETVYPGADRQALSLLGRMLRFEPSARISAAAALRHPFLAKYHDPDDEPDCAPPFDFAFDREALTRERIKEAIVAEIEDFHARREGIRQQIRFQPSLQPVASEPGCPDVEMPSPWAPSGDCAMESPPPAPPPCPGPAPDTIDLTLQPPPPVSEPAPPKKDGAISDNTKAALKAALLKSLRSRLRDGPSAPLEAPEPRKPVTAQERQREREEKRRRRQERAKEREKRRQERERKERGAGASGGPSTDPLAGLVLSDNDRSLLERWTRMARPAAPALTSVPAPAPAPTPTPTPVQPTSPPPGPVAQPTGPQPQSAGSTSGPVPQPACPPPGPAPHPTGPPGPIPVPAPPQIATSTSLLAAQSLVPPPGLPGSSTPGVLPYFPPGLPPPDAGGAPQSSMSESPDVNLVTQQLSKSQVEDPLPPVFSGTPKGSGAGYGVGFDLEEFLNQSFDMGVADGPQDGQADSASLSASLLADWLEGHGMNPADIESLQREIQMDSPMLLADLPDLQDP
The next test addresses MEKK1 (Homo sapiens, UniProt Q13233). Put plainly: Kinase panel, radiometric 33P filter binding. Particulars: read-out: % activity remaining.
The target of a further test is Lck (Homo sapiens, UniProt P06239). Put plainly: Kinase panel, radiometric 33P filter binding. To be noted: read-out: % activity remaining.
For another test, the target named is WNK1 (Homo sapiens, UniProt Q9H4A3). Put plainly: Kinase panel, radiometric 33P filter binding. Particulars: read-out: % activity remaining.
A further test concerns the target DAPK1 (Homo sapiens, UniProt P53355). Description: Kinase panel, radiometric 33P filter binding. To be noted: read-out: % activity remaining.
The target of a further test is PKBa (Homo sapiens, UniProt P31749). Description: Kinase panel, radiometric 33P filter binding. To be noted: read-out: % activity remaining.
A further test deals with JAK3 (Homo sapiens, UniProt P52333). Put plainly: Kinase panel, radiometric 33P filter binding. Particulars: read-out: % activity remaining.
For the next test, the target named is CK2 (Homo sapiens, UniProt P68400). Put plainly: Kinase panel, radiometric 33P filter binding. Particulars: read-out: % activity remaining.
Sequence of CK2 (P68400 whole entry): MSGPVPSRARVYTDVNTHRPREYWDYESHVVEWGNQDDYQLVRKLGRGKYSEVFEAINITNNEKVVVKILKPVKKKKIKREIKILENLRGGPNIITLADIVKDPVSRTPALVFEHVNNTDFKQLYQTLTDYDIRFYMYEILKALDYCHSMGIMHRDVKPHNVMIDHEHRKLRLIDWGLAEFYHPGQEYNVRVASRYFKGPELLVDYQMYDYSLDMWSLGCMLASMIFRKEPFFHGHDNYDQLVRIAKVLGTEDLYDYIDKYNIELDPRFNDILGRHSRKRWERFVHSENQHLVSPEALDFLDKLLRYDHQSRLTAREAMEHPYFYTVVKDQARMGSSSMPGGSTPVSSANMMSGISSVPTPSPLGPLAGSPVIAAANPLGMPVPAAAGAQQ

Sequence of GSK3b (P49841 whole entry): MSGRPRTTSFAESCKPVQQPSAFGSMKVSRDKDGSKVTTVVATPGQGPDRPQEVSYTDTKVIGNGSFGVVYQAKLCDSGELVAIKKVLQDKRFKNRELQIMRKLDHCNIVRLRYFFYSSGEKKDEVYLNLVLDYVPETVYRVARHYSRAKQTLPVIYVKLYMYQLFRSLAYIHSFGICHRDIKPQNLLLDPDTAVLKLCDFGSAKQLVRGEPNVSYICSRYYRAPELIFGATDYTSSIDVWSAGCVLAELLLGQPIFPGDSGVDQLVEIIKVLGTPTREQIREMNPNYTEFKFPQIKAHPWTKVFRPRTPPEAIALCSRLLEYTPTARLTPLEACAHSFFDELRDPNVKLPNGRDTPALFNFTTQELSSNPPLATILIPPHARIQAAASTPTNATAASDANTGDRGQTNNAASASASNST
Sequence of NUAK1 (O60285 whole entry): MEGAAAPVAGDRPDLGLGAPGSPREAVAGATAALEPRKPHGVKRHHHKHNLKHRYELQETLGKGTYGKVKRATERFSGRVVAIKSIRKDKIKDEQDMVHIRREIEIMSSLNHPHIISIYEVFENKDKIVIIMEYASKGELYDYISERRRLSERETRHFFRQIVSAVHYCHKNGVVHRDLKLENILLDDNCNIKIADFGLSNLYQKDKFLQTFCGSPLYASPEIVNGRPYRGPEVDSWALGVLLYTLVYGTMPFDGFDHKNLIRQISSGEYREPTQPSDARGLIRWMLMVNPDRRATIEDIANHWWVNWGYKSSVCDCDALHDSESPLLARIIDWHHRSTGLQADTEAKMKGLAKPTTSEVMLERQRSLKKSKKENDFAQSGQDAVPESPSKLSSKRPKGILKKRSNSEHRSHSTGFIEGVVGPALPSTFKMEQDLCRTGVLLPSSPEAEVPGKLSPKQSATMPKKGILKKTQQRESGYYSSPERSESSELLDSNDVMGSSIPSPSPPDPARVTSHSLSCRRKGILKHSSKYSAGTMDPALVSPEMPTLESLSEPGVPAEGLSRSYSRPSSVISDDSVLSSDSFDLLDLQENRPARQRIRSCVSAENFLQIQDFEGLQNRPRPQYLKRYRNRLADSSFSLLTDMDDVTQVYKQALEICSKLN
Sequence of PI5P4Kγ+ (Q8TBX8 with tags, fused parts or gaps with the stated changes): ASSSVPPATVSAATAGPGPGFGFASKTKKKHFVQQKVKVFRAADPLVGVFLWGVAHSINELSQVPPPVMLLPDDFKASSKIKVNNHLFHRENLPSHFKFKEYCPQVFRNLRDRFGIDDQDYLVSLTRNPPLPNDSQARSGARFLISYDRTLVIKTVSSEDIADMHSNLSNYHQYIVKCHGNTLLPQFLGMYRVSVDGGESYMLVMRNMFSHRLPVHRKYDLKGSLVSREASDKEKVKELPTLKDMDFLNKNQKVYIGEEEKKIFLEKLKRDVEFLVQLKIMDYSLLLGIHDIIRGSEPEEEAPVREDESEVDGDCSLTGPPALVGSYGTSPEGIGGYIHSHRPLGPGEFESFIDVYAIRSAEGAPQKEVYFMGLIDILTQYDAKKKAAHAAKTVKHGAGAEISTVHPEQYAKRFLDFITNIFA
Sequence of ERK8 (Q8TD08 whole entry): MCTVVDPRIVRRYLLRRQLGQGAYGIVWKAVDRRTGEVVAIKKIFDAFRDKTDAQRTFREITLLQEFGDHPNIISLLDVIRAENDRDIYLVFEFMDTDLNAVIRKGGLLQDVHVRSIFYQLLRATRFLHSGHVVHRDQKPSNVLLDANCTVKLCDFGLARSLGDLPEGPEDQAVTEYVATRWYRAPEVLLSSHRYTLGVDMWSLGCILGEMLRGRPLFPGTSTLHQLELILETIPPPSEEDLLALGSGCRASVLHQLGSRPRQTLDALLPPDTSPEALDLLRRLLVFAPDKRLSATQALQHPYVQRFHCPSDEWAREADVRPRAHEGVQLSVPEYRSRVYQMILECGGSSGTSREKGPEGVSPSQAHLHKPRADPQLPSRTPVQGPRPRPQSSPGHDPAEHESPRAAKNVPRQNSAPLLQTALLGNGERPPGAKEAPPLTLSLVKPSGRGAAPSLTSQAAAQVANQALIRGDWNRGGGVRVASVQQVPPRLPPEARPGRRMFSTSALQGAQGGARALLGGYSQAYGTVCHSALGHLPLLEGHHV
From the text for CK2: (§1) filter binding assay using 33P-g-ATPat the MRC PPU International Centre for Kinase Profiling, University of
From the text for DAPK1: as §1
From the text for DYRK2: as §1
From the text for ERK5: as §1
From the text for ERK8: as §1
From the text for GSK3b: as §1
From the text for HIPK1: as §1
From the text for IGF-1R: as §1
From the text for MEKK1: as §1
From the text for MINK1: as §1
From the text for NEK2a: as §1
From the text for NUAK1: as §1
Kinase % activity remaining s.d.
From the text for PIM1: as §1
Kinase % activity remaining s.d.
From the text for PKBa: as §1
From the text for RSK1: as §1
From the text for SGK1: as §1
From the text for TAO1: as §1
From the text for TESK1: as §1
From the text for WNK1: as §1
From the text for p38d MAPK: as §1

`FC(F)(F)c1ccccc1-c1nc(NCc2cccs2)c2ccccc2n1` [Compound 1, NIH-12848, reference compound]: the ΔTm at 63 µM was 7.4 ± 0.6 °C at PI5P4Kγ+ and -0.2 ± 0.4 °C at PI5P4Kα.

With `CC(C)c1ccccc1-c1nc(NCc2ccccn2)c2c(ccn2C)n1` [Compound 40], the remaining activity at 10 µM on RIPK2 stood at 92%; on RSK1, 99%; at TAK1, 110%; at DYRK2, 106%; on ERK8, 109%; at MINK1 it was 95%. Further, the remaining activity at 10 µM on SGK1 amounted to 98%; on NUAK1 it was 88%; at MNK1 it was 104%; at NEK2a it was 103%; at SYK it was 91%; at TESK1, 114%. For the same compound, the remaining activity at 10 µM at TAO1 is 115%; on IGF-1R it was 107%; at PIM1, 102%; at p38d MAPK it was 117%; on GSK3b, 93%; at HIPK1, 104%. Also, the remaining activity at 10 µM at ERK5 was 138%; at MEKK1, 68%; at Lck, 102%; on WNK1, 112%; on DAPK1, 105%; on PKBa, 103%. For the same compound, the remaining activity at 10 µM on JAK3 is 97%; on CK2, 90%.

Broadly, the remaining activity is the signal under treatment as a percentage of the control signal.
